Experimental data from US20230173135A1, “PROCESS TO COAT A MEDICAL DEVICE SURFACE WITH PEPTIDE-BASED NANOPARTICLES” (priority 2020, published 2023).

Legend:
[1] = tested on: Human keratinocyte cell line (HaCaT); experiment: Biocompatibility: keratinocytes cultured on films, ATP (CellTiter-Glo) assay; format: cell-based; conditions: 4 and 24 h; cells on films or with soluble peptide (20 µg/mL)
Procedure: Cell Culture. Human dermal fibroblast cells (NDHF) (Lonza) were cultured with Dulbecco’s modified eagle’s medium (DMEM) (Sigma) supplemented with 10% (v/v) of fetal bovine serum (Gibco, Grand Island, NY, USA) and 1% (v/v) penicillin/streptomycin (Lonza). NDHF cells under passage number ten were used in all experiments. Human keratinocyte cell line (HaCaT cell line, CLS, Eppelheim, Germany) was cultured as recommended by the vendor. Briefly, HaCaT cells were cultivated using DMEM supplemented with 1% (v/v) penicillin and streptomycin (Invitrogen) and 10% (v/v) fetal bovine serum (FBS, Invitrogen) until 90% of confluence. For passage, HaCat cells were initially trypsinized and then scraped. The cells were sub-cultured at a ratio of 1:3 until achieving the number of cells required for the experiment.
Biocompatibility study. Keratinocytes (2×10^4 cells) were cultured on top of PU-Adhesive-LL37NP, PU-Adhesive or PU films and cultured for 4 and 24 h. […] Cell viability was measured using ATP assay. […]
In vitro cytotoxicity of PU-adhesive-LL37NP films. […] To evaluate the cytotoxicity of films, keratinocytes were cultured on the top of PU-adhesive-LL37NP, PU-adhesive and PU films for 4 and 24 h and then cell viability was evaluated by an ATP assay (FIG. 12A). […]

[2] = tested on: S.aureus; format: cell-based
Procedure: (§1) Bacterial resistance assay. Commercial available Acticoat® dressing from Smith & Nephew was used to study the development of bacterial resistance against Ag. Acticoat® (1 cm^2 area) was placed in water (1 mL) and kept at room temperature for 24 h in order to promote leaching of Ag ions. ICP-MS analysis of leached solution was done to quantify the amount of Ag ions. The leached Acticoat® solution (Ag^+,0.06 ug/mL; sub-minimum inhibitory concentration, sub-MIC) was used to incubate with E.coli or S.aureus suspensions (10^5 CFU/mL) for 20 h in 10% human serum (HS; v/v in PBS). Then, for antimicrobial test, 10^5 CFU/mL of bacteria from passage 1 were incubated with 0.1 ug/mL (minimum inhibitory concentration, MIC) of Acticoat® solution in 10% human serum (HS) for 6 h followed by serial dilution and plating. Plates were incubated at 37° C. for 24 h. The visible bacteria grown on plates were counted. […]
(§2) Next, the inventors evaluated whether LL37NPs induced bacterial resistance (FIG. 5). […] Acticoat® dressing was incubated in PBS for 1, 3 and 5 days followed by the quantification of silver ions using ICP-MS analysis (FIG. 11C). […]
(§3) (A) Schematic diagram showing experimental procedures being used for bacterial resistance assay. […] ICP-MS analysis was performed to quantify the amount of Ag. […]

[3] = tested on: E.coli; format: cell-based
Procedure: as §1, §2, §3

[4] = tested on: P.aeruginosa

| Structure (SMILES) | keratinocyte metabolism / cytotoxicity (ATP production) [1] | MIC ([2]; free peptide) | MIC ([3]; free peptide) | MIC [4] | time to induce resistance ([2]; serial passages at sub-MIC) [days] | time to induce resistance ([3]; serial passages at sub-MIC) [days] |
| --- | --- | --- | --- | --- | --- | --- |
| CC[C@H](C)[C@H](NC(=O)[C@H](CCCCN)NC(=O)[C@H](CCC(=O)O)NC(=O)[C@H](CCCCN)NC(=O)[C@H](CO)NC(=O)[C@H](CCCCN)NC(=O)[C@H](CCCNC(=N)N)NC(=O)[C@H](Cc1ccccc1)NC(=O)[C@H](Cc1ccccc1)NC(=O)[C@H](CC(=O)O)NC(=O)CNC(=O)[C@H](CC(C)C)NC(=O)[C@@H](N)CC(C)C)C(=O)NCC(=O)N[C@@H](CCCCN)C(=O)N[C@@H](CCC(=O)O)C(=O)N[C@@H](Cc1ccccc1)C(=O)N[C@@H](CCCCN)C(=O)N[C@@H](CCCNC(=N)N)C(=O)N[C@H](C(=O)N[C@H](C(=O)N[C@@H](CCC(N)=O)C(=O)N[C@@H](CCCNC(=N)N)C(=O)N[C@H](C(=O)N[C@@H](CCCCN)C(=O)N[C@@H](CC(=O)O)C(=O)N[C@@H](Cc1ccccc1)C(=O)N[C@@H](CC(C)C)C(=O)N[C@@H](CCCNC(=N)N)C(=O)N[C@@H](CC(N)=O)C(=O)N[C@@H](CC(C)C)C(=O)N[C@H](C(=O)N1CCC[C@H]1C(=O)N[C@@H](CCCNC(=N)N)C(=O)N[C@H](C(=O)N[C@@H](CCC(=O)O)C(=O)N[C@@H](CO)C(=O)N[C@@H](CS)C(=O)O)[C@@H](C)O)C(C)C)[C@@H](C)CC)C(C)C)[C@@H](C)CC [LL37 peptide] | No statistic difference in keratinocyte metabolism | up to 15 µg/mL | up to 15 µg/mL | up to 15 µg/mL |  |  |
| O=C(N[C@H](CO)[C@H](O)c1ccc([N+](=O)[O-])cc1)C(Cl)Cl [chloramphenicol] |  |  |  |  | ≤ 3 | ≤ 3 |
